From paper PMC9571303, “Development of Clinical Weekly-Dose Teriparatide Acetate Encapsulated Dissolving Microneedle Patch for Efficient Treatment of Osteoporosis” (Polymers, 2022)
Several values for one entry are separate records, joined by “and”; a condition that tells them apart may be missing. Identical values can stand only once. Like-named read-outs stand apart in the source and are kept apart here.

What was measured:
[1] = TA activity after drying in CL-mimic conditions (RP-HPLC); type: physicochemical; details: droplets dried at 4 °C under vacuum (CL-mimic), reconstituted in PBS, RP-HPLC C18, UV, mean ± SD, n = 15
Description: TA activity was assessed via reverse-phase high-performance liquid chromatography (RP-HPLC) under CL-mimic conditions, in which TA undergoes a drying process from droplets of matric polymer with TA. TA polymer solutions were dispensed as droplets on a polyurethane film (SLA, Gumi, Korea) using a robotic dispenser (ML-5000X; Musashi Engineering, Inc., Tokyo, Japan) and dried at 4 °C under vacuum to mimic the conditions of the CL. Dried droplets were then dissolved in phosphate-buffered saline (PBS; Life Technologies, Carlsbad, CA, USA) for reconstitution and analyzed via RP-HPLC using a separation module (Waters e2695; Waters Corp., Milford, MA, USA) and a dual λ absorbance detector (Waters 2487′ Waters Corp., Milford, MA, USA). A C18 column (COSMOSIL; 5 μm, 150 × 4.6 mm) was used for HPLC. Mobile phase A was prepared as 10% acetonitrile (Sigma-Aldrich, St. Louis, MO, USA) and 90% 0.2 M sodium sulfate (Sigma-Aldrich, St. Louis, MO, USA) and phase B was prepared as 50% acetonitrile and 50% of 0.2 M sodium sulfate with a flow rate of 1.3 mL/min and detection wavelength of […].

[2] = In vivo pharmacokinetic analysis after TA delivery; design: species or system Sprague Dawley rats; details: SD rats; for half-life: male, Sprague Dawley, rat
Description: Six-week-old male Sprague Dawley rats (SD rats) were purchased from Young Bio Inc. (Seongnam, Korea) and allowed seven days for acclimation. Three groups of SD rats were used for the pharmacokinetic study. All the dorsal regions of the SD rats were shaved for application of the TA-DMN patches. Group 1 was administered a subcutaneous injection of a formulation containing 60.6 μg of TA into the central part of the back using a 27 G hypodermic needle (Becton Dickinson, Franklin Lakes, NJ, USA), and served as the positive control. Group 2 received one TA-DMN patch containing 61.4 ± 1.3 µg of TA. Group 3 received two TA-DMN patches containing 122.8 ± 2.6 µg of TA. A home-made shooting device was used to apply the TA-DMN patches on the backs of the SD rats, and a dressing (Tegaderm; 3M Health Care, St. Paul, MN, USA) was used to cover the patches. In addition, a self-adherent bandage wrap (Coban; 3M Health Care, St. Paul, MN, USA) was used to secure the patches.
At 0, 0.25, 0.5, 0.75, 1, 2, 3.5, 4, 5, 6, and 24 h after subcutaneous administration of TA in group 1, 100 μL of blood was taken into a Microvette (SARSTEDT; Nümbrecht, Germany) from the saphenous vein, which was exposed after a minor incision of the tail by a surgical blade. Blood samples were collected in the same manner at 0, 0.5, 1, 2, 3.5, 4, 5, 6, and 24 h after TA-DMN patch application in group 2, and at 0, 0.5, 1, 1.5, 3, 4, 5, 6, and 24 h after TA-DMN patch application in group 3. The collected blood was left at room temperature for 30 min and centrifuged using a microcentrifuge (Hanil, Dajeon, Korea) at 1000× g for 10 min to separate the plasma. All separated plasma samples were transferred to 1.5-mL Eppendorf tubes and stored at −70 °C. TA concentrations in rat plasma were determined via enzyme-linked immunosorbent assay (ELISA) using a TA pharmacokinetics ELISA kit (SB-07-043; Somru Bioscience, Charlottetown, PE, Canada) and a microplate reader (Perkin Elmer, Waltham, MA, USA). Based on the determined TA concentrations in rat plasma, the areas under the concentration curve (AUC) were computed using the trapezoid area calculation method, and BA was evaluated to analyze the pharmacokinetic profiles.

Compound: CC[C@H](C)[C@H](NC(=O)[C@H](CCC(=O)O)NC(=O)[C@H](CO)NC(=O)[C@@H](NC(=O)[C@@H](N)CO)C(C)C)C(=O)N[C@@H](CCC(N)=O)C(=O)N[C@@H](CC(C)C)C(=O)N[C@@H](CCSC)C(=O)N[C@@H](Cc1cnc[nH]1)C(=O)N[C@@H](CC(N)=O)C(=O)N[C@@H](CC(C)C)C(=O)NCC(=O)N[C@@H](CCCCN)C(=O)N[C@@H](Cc1cnc[nH]1)C(=O)N[C@@H](CC(C)C)C(=O)N[C@@H](CC(N)=O)C(=O)N[C@@H](CO)C(=O)N[C@@H](CCSC)C(=O)N[C@@H](CCC(=O)O)C(=O)N[C@@H](CCCN=C(N)N)C(=O)N[C@H](C(=O)N[C@@H](CCC(=O)O)C(=O)N[C@@H](Cc1c[nH]c2ccccc12)C(=O)N[C@@H](CC(C)C)C(=O)N[C@@H](CCCN=C(N)N)C(=O)N[C@@H](CCCCN)C(=O)N[C@@H](CCCCN)C(=O)N[C@@H](CC(C)C)C(=O)N[C@@H](CCC(N)=O)C(=O)N[C@@H](CC(=O)O)C(=O)N[C@H](C(=O)N[C@@H](Cc1cnc[nH]1)C(=O)N[C@@H](CC(N)=O)C(=O)N[C@@H](Cc1ccccc1)C(=O)O)C(C)C)C(C)C [TA, teriparatide acetate]
- TA activity after drying ([1]; TA polymer solution (HA) with 10% trehalose): 75.4 ± 8.3%
- TA activity after drying ([1]; TA polymer solution (HA) without trehalose): 59.0 ± 3.6%
- Tmax ([2]; Group 1: subcutaneous injection, 60.6 μg TA, plasma ELISA, n = 3): 18 min
- BA ([2]; Group 1: subcutaneous injection, 60.6 μg TA, positive control (reference), n = 3): 100% and 100 ± 10.5%
- half-life ([2]; plasma, after all three TA administration methods (SC, one patch, two patches), read-out: half-life t½ of TA in plasma (converted)): ~48 min
- half-life ([2]; sc, Group 1: subcutaneous injection, 60.6 μg TA, plasma ELISA, n = 3, read-out: t1/2 (converted)): 48 min
